Where “and” joins values, the source holds several entries; their conditions need not be identical. Equal entries are not always repeated. Where two headings read alike, the source gives them in different places.
Key:
C1b domain of human PKCθ = molecular target: T1, C1b domain of human PKCθ (Homo sapiens, UniProt Q04759); experiment: biochemical; format: binding; details: 3H-PDBu competition
T1 construct: Genes encoding C1b domains of human PKCα, δ, ε, θ, and PKD1 (PKCμ) were synthesized; made in house; host or cells: E. coli BL21(DE3)
T1 sequence (Q04759 231-281 limits assumed): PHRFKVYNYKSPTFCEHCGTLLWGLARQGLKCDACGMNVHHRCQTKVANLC
Experimental: (§1) Compounds described in this disclosure were tested for binding affinity to C1b domain of PKC isoforms. Compound binding affinity to C1b domain of PKC isoforms was derived from competitive binding assay using radioactive tracer ^3H-PDBu and recombinant GST-C1b or full-length of human PKC proteins based on modified procedures from Methods in Molecular Biology, vol.
(§2) Genes encoding C1b domains of human PKCα, δ, ε, θ, and PKD1 (PKCμ) were synthesized and inserted into pGEX-2TK or pGEX-4T1 vectors for expression and production of GST-C1b proteins in E. coli BL21(DE3) via IPTG induction. The target proteins were purified by glutathione sepharose 4B and followed by ion exchange chromatography if needed to achieve purity >70%. Aliquots of the purified proteins were stored at −80 degree for binding assay (storage buffer: 20 mM Tris pH 8.0, 200 mM NaCl, 10% glycerol, 1 mM DTT).
(§3) The plate was incubated at 37° C. on a shaker at 300 rpm for 10 minutes and then put on ice for 20 minutes. […] The bottom of the filter plate was sealed and 50 μL of MicroScint-20 (PerkinElmer) cocktail was added to each well. ^3H-PDBu trapped in each well was counted using PerkinElmer MicroBeta2 Reader. Data were analyzed using GraphPad Prism5 with the model “log(inhibitor) vs. response-variable slope” to fit the IC50, and then IC50 was transformed to Ki using Cheng-Prusoff equation: Ki=IC50/(1+added radio ligand/Kd). Kd is the binding affinity of each protein preparation to ^3H-PDBu, determined experimentally.

A549 cell line = experiment: Proliferation of A549 (CellTiter Glo); format: cell-based; details: Homo sapiens, read-out: IC50 μM (A549 Cell Line)
Experimental: (§4) The diterpenoid compounds were tested in A549, a non-small cell lung cancer cell line harboring a K-Ras activating mutation. Briefly, A549 cells at a density of 1,000 cells/well were seeded in 96-well plates and incubated at 37° C. for 24 hours. A series of different concentrations of compound stocks (500×) were prepared by 3-fold serial dilution in DMSO. These compounds were further diluted in culture media and then added to cells so that the final DMSO concentration was not exceeding 0.25%. After 96 hours of incubation, 50 μL of CellTiter Glo reagent (Promega) was added to each well and luminescence was measured after 10 minutes using EnVision (PerkinElmer). Luminescence from cells treated with DMSO alone was set as Max and % of inhibition was calculated as follows: Inhibition %=(Max-Sample value)/Max×100. Data was analyzed using XL-fit software (ID Business Solutions Ltd.) and IC50, relative IC50, and % of top inhibition was calculated. Some of the compounds in this disclosure were very potent in blocking proliferation of A549 lung cancer cells at low nM range. In addition, potency of inhibiting A549 proliferation correlated well with its binding affinity to PKCs for this series of compounds. In other words, higher affinity binders had stronger inhibitory effects on A549 proliferation. This further support the notion that activation, rather than inhibition, of certain PKC isoforms is required to block proliferation of cancer cells, some of which may harbor K-Ras mutations. This is in sharp contrast to previous literature and common belief that inhibition of PKC is necessary to block cancer cell growth (Kang, 2014, New Journal of Science, 2014:1-36). Data presented here is in agreement with recent findings that many loss-of-function but not gain-of-function mutations of PKC isoforms have been identified in many human cancers (Antal et al., 2015, Cell, 160:489-502).

HL-60 (Leukemia) = experiment: Proliferation of HL-60; format: cell-based; details: for IC50: Homo sapiens, HL-60, read-out: IC50 HL-60 (Leukemia)
Experimental: as §4
(§5) The compounds in this disclosure were tested for their potency in blocking proliferation of a few other cancer cells lines, including K-Ras mutant pancreatic cell lines Panc2.13 and KP-4, leukemia cell line HL-60, and lymphoma cell lines Namalwa and Mino. Similar procedures as in Example 67 were followed. Initial cell numbers seeded in 96-well plates were different for different cell lines: 3000 cells/well for Panc2.13; 800-1000 cells/well for KP-4; 5000 cells/well for HL-60; 5000-10000 cells/well for Namalwa and Mino. A ratio of (IC50 of K101)/(IC50 of compound) (data in parenthesis in Table 5) was used to normalize the compound potency from different assay batches to a common comparator K101.

Namalwa (Lymphoma) = experiment: Proliferation of Namalwa; format: cell-based; details: for IC50: read-out: IC50 Namalwa (Lymphoma)
Experimental: as §4, §5

Mino (Lymphoma) = experiment: Proliferation of Mino; format: cell-based; details: for IC50: Homo sapiens, MINO, read-out: IC50 Mino (Lymphoma)
Experimental: as §4, §5

[1] = test system: NFκB-driven transcription in HeLa-NFκB luciferase reporter cell line; experiment: NFκB luciferase reporter assay; details: Homo sapiens, HeLa, 16 h, read-out: NFκB-luc HeLa cells EC50 (μM)
Experimental: A HeLa-NFκB luciferase reporter cell line (Wuxi Biology) was used to assess a group of PKC activator compounds for their ability to activate NFκB-driven transcription. […] One set of cells was assayed for luciferase activity (Promega, Cat #E1500) and the other set was assayed to determine the number of viable cells (for cell number normalization) using CellTiter-Glo (CTG) kit (Promega, Cat #G7570) according to manufacture's procedures. Normalized data (luciferase value/CTG value) were analyzed using GraphPad Prism5 to calculate EC50 for each compound (see Table 8).
To assess if activation of PKC is required for these compounds to activate NFκB, several PKC inhibitors including broad-spectrum and conventional PKC inhibitors were tested. In the assay described above, PKC inhibitors were added at the same time as the PKC activator compounds.

C1b domain of human PKCδ = molecular target: T2, C1b domain of human PKCδ (Homo sapiens, UniProt Q05655); experiment: biochemical; format: binding; details: 3H-PDBu competition
T2 construct: Genes encoding C1b domains of human PKCα, δ, ε, θ, and PKD1 (PKCμ) were synthesized; made in house; host or cells: E. coli BL21(DE3)
T2 sequence (Q05655 230-280 limits assumed): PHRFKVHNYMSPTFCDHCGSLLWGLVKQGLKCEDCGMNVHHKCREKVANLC
Experimental: as §1, §2, §3

C1b domain of human PKCε = molecular target: T3, C1b domain of human PKCε (Homo sapiens, UniProt Q02156); experiment: biochemical; format: binding; details: 3H-PDBu competition
T3 construct: Genes encoding C1b domains of human PKCα, δ, ε, θ, and PKD1 (PKCμ) were synthesized; made in house; host or cells: E. coli BL21(DE3)
T3 sequence (Q02156 242-292 limits assumed): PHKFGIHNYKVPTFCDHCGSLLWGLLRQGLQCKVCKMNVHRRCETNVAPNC
Experimental: as §1, §2, §3

Panc2.13 (Pancreatic) = experiment: Proliferation of Panc2.13; format: cell-based
Experimental: as §4, §5

KP-4 (Pancreatic) = experiment: Proliferation of KP-4; format: cell-based; details: 96 h; read-out: IC50 KP-4 (Pancreatic)
Experimental: as §4, §5

CT26 tumors = experiment: CT26 tumor after single dose intratumoral treatment, H&E stain and CD31 IHC; format: in vivo, mouse; details: for CD31 IHC (counts per mm^2) / H&E Necrotic tumor area (%): individual tumors
Experimental: Method. Each 6-8 weeks old female Balb/c mouse was implanted with 3×10^5 CT26 mouse colon cancer cells in one flank for tumor development. When the average tumor volume reached 95 mm^3, 21 mice were randomized into different groups and were treated via a single IT injection (20 uL) according to the group assignment (different dose and treatment duration) in the table below. Tumors were harvested at 1h, 7h, or 24h post IT injection, and then fixed and processed for paraffin embedding.
Paraffin blocks were sectioned into […] sections using Leica RM2235 microtome. One section was stained for Hematoxylin-Eosin (H&E) using Leica ST5020-CV5030 stainer integrated workstation according to the Manufacture's procedure. Photos were taken using Nikon DS-Ri2. Another section was processed for IHC staining with the CD31 antibody (BD, Cat #550274) at 1:10 dilution. The stained slides were scanned using Leica Aperio VERSA 8 and the images were analyzed using HALO image analysis software system (Indica Labs).

## CC1=C[C@H]2[C@@]3(O)[C@H](C)C[C@]4(OC(=O)CCC5CCCC5)[C@H]([C@@H]3C=C(CO)C[C@]2(O)C1=O)C4(C)C
C1b domain of human PKCθ
  Ki: 10 to 30 nM
A549 cell line; A549, 96 h
  IC50: 0.03 to 0.06 µM
HL-60 (Leukemia)
  ratio (IC50 of K101)/(IC50 of compound) HL-60: 9.23
  IC50: 30 to 60 nM
Namalwa (Lymphoma)
  ratio (IC50 of K101)/(IC50 of compound) Namalwa: 1.73
  IC50: 30 to 60 nM
Mino (Lymphoma)
  ratio (IC50 of K101)/(IC50 of compound) Mino: 11
  IC50: 1 to 10 nM
[1]
  EC50: 0.06 to 0.1 µM

## CC1=C[C@H]2[C@@]3(O)[C@H](C)C[C@]4(OC(=O)C5CC6(C5)CN(C(=O)OC(C)(C)C)C6)[C@H]([C@@H]3C=C(CO)C[C@]2(O)C1=O)C4(C)C
C1b domain of human PKCδ
  Ki: 10 to 30 nM
C1b domain of human PKCθ
  Ki: 10 to 30 nM
A549 cell line; A549, 96 h
  IC50: 0.1 to 0.2 µM

## CC1=C[C@H]2[C@@]3(O)[C@H](C)C[C@]4(OC(=O)CC5CC6(C5)CN(C(=O)OC(C)(C)C)C6)[C@H]([C@@H]3C=C(CO)C[C@]2(O)C1=O)C4(C)C
C1b domain of human PKCε
  Ki: 10 to 30 nM
C1b domain of human PKCθ
  Ki: 10 to 30 nM
A549 cell line; A549, 96 h
  IC50: 0.03 to 0.06 µM

## CC1=C[C@H]2[C@@]3(O)[C@H](C)C[C@]4(OC(=O)/C=C/c5ccc(C(F)(F)F)cc5)[C@H]([C@@H]3C=C(CO)C[C@]2(O)C1=O)C4(C)C
C1b domain of human PKCδ
  Ki: 10 to 30 nM
C1b domain of human PKCε
  Ki: 10 to 30 nM
C1b domain of human PKCθ
  Ki: 10 to 30 nM
A549 cell line; A549, 96 h
  IC50: 0.06 to 0.1 µM

## CC1=C[C@H]2[C@@]3(O)[C@H](C)C[C@]4(OC(=O)[C@@H](N)Cc5ccc(C(F)(F)F)cc5)[C@H]([C@@H]3C=C(CO)C[C@]2(O)C1=O)C4(C)C
A549 cell line; A549, 96 h
  IC50: 0.06 to 0.1 µM
Panc2.13 (Pancreatic)
  ratio (IC50 of K101)/(IC50 of compound) Panc2.13: 6.79
Panc2.13 (Pancreatic); read-out: IC50 Panc2.13 (Pancreatic)
  IC50: 100 to 200 nM
KP-4 (Pancreatic)
  IC50: 100 to 600 nM
HL-60 (Leukemia)
  ratio (IC50 of K101)/(IC50 of compound) HL-60: 6.43
  IC50: 30 to 60 nM
Namalwa (Lymphoma)
  ratio (IC50 of K101)/(IC50 of compound) Namalwa: 1.68
  IC50: 30 to 60 nM
Mino (Lymphoma)
  ratio (IC50 of K101)/(IC50 of compound) Mino: 6.2
  IC50: 10 to 30 nM
[1]
  EC50: 0.06 to 0.1 µM

## CC1=C[C@H]2[C@@]3(O)[C@H](C)C[C@]4(OC(=O)[C@H](N)CCCCCCc5ccccc5)[C@H]([C@@H]3C=C(COC(=O)[C@@H](N)C(C)C)C[C@]2(O)C1=O)C4(C)C
A549 cell line; A549, 96 hours, CellTiter Glo
  IC50: 0.03 to 0.06 µM
CT26 tumors; 47.2 μg single IT, 24 h
  CD31 IHC (counts per mm^2): 163 counts per mm^2 and 111 counts per mm^2
  H&E Necrotic tumor area (%): 40% and 70%
CT26 tumors; 47.2 μg, 7h
  tumors with reduction of CD31 density: 2 out of 3
CT26 tumors; 141.6 μg single IT, 24 h
  CD31 IHC (counts per mm^2): 176 counts per mm^2 and 29 counts per mm^2 and 72 counts per mm^2
  H&E Necrotic tumor area (%): 80% (2×) and 90%
CT26 tumors; 472 μg single IT, 1 h
  CD31 IHC (counts per mm^2): 577 counts per mm^2 and 457 counts per mm^2 and 463 counts per mm^2
  H&E Necrotic tumor area (%): 5% and 3% and 0%
CT26 tumors; 472 μg single IT, 7 h
  CD31 IHC (counts per mm^2): 188 counts per mm^2 and 536 counts per mm^2 and 179 counts per mm^2
  H&E Necrotic tumor area (%): 10% and 0% and 25%
CT26 tumors; 472 μg single IT, 24 h
  CD31 IHC (counts per mm^2): 155 counts per mm^2 and 187 counts per mm^2 and 118 counts per mm^2
  H&E Necrotic tumor area (%): 40% and 30% and 90%
CT26 tumors; all three doses, 24h
  massive cell death in tumors: up to 90%

From US20240197666A1, “DITERPENOID COMPOUNDS THAT ACT ON PROTEIN KINASE C (PKC)” (K-Gen Therapeutics, Inc., priority 2021, published 2024)
